Peptide text beside a SMILES is read from it.
Tests used:
[1] = system: human vascular endothelial cells and fibroblast cells (co-culture, Angiogenesis Kit KZ-1000); details: 10 μg/mL, length of lumina
Experimental: Using AG30-5C as a positive control, the angiogenesis-inducing activity of SR-1 and SR-2 was measured. […] As a negative control, polypeptide-free group (Control) was used.
Cells were cultured at 37° C. under 5% CO2 in a 24-well plate using the special media to which the polypeptide was added. The medium was replaced with a medium containing the same polypeptide on day 4, day 7 and day 9 of culture. On day 11 from the beginning of the culture, the medium was removed and staining was performed using a kit for staining lumina (for CD31 antibody staining) according to the following procedure.
The primary antibody (mouse anti-human CD31 antibody) was 4000-fold diluted with a blocking solution (Dulbecco's phosphate buffered saline (PBS(−)) containing 1% BSA). To each well, 0.5 mL of this primary antibody solution was added, and the plate was incubated for 60 minutes at 37° C. After the completion of the incubation, each well was washed totally 3 times with 1 mL of the blocking solution.
Then, 0.5 mL of a secondary antibody solution (goat anti-mouse IgG/alkaline phosphatase conjugate) 500-fold diluted with the blocking solution was added to each well. The plate was incubated for 60 minutes at 37° C., and thereafter each well was washed 3 times with 1 mL of distilled water. During that period, 2 tablets of BCIP/NBT were dissolved into distilled water, and the obtained solution was filtered through a filter having a pore size of 0.2 μm to prepare a substrate solution. To each well, 0.5 mL of the prepared BCIP/NBT substrate solution was added, and the plate was incubated at 37° C. until the lumina turned to deep purple (typically for 5-10 minutes). After the completion of the incubation, each well was washed 3 times with 1 mL of distilled water. After washing, the washing solution was removed by aspiration, and the plate was left to stand and dry naturally. After drying, photographs of each well were taken under a microscope.
Each of the obtained images was quantified using an angiogenesis quantification software. Computer analysis was carried out on various parameters.

[2] = system: HWY/slc hairless rats, full-thickness defect infected with Staphylococcus aureus; test: Healing effect in rat infected-wound model; assay type: in vivo
Experimental: Referring to Stenberg B D et al. (J Surg Res. 1991 January; 50(1):47-50.) and Hayward P et al. (Am J. Surg. 1992 March; 163(3):288-93.), a rat infected-wound model was produced as described below. […] hairless rats (male, 7-week old, obtained from Japan SLC, Inc.) were used. The day before full-thickness defects were created, the number of leukocytes was measured and cyclophosphamide was administered in tail vein (100 mg/kg). On the next day, the number of leukocytes was counted. Only the individuals in which the number of leukocytes was not more than 5000, were used. […] After administering the test substances, the wound sites were covered with a covering (PERME-ROLL, Nitto Medical Corporation) (day 0). […] Six days after the full-thickness defects were created (day 6), the area where the wounds had still not healed was measured to calculate the ratio of it relative to the area where the wounds were created, and the ratio was regarded as the wound area ratio on day 6.

| SMILES | angiogenesis-inducing activity compared with AG30-5C [1] | Wound area ratio on day 6 ([2]; SR-1 50 μg, bFGF formulation 3 μg/25 μL, once a day days 0-3) | healing effect on wounds associated with infection ([2]; compared with the bFGF formulation) |
| --- | --- | --- | --- |
| CC[C@H](C)[C@H](NC(=O)[C@H](CC(C)C)NC(=O)[C@H](CCCCN)NC(=O)[C@H](CC(C)C)NC(=O)[C@@H](N)CCSC)C(=O)N[C@@H](Cc1ccccc1)C(=O)N[C@@H](CC(C)C)C(=O)N[C@@H](Cc1c[nH]cn1)C(=O)N[C@@H](CCCNC(=N)N)C(=O)N[C@@H](CC(C)C)C(=O)N[C@@H](CCCCN)C(=O)N[C@@H](CCCNC(=N)N)C(=O)N[C@@H](CCSC)C(=O)N[C@@H](CCCNC(=N)N)C(=O)N[C@@H](CCCCN)C(=O)N[C@@H](CCCNC(=N)N)C(=O)N[C@@H](CC(C)C)C(=O)N[C@@H](CCCCN)C(=O)N[C@@H](CCCNC(=N)N)C(=O)N[C@@H](CCCCN)C(=O)O [SR-1] (H-MLKLIFLHRLKRMRKRLKRK-OH; N-terminus assumed) | higher than AG30-5C | 80.2 | higher healing effect compared with the bFGF formulation |
| CC(C)C[C@H](NC(=O)[C@H](CCCCN)NC(=O)[C@H](CCCNC(=N)N)NC(=O)[C@H](CCCCN)NC(=O)[C@H](CC(C)C)NC(=O)[C@H](CCCNC(=N)N)NC(=O)[C@H](CCCCN)NC(=O)[C@H](CCCNC(=N)N)NC(=O)[C@H](CC(C)C)NC(=O)[C@H](CCCNC(=N)N)NC(=O)[C@H](CCCNC(=N)N)NC(=O)[C@H](CCCCN)NC(=O)[C@H](CC(C)C)NC(=O)[C@H](CCCNC(=N)N)NC(=O)[C@H](Cc1c[nH]cn1)NC(=O)[C@H](CC(C)C)NC(=O)[C@H](Cc1ccccc1)NC(=O)[C@H](CCCNC(=N)N)NC(=O)[C@H](CC(C)C)NC(=O)[C@@H](N)CCC(=O)O)C(=O)N[C@@H](CCCNC(=N)N)C(N)=O [SR-2] (H-ELRFLHRLKRRLRKRLKRKLR-NH2; N-terminus assumed) | higher than AG30-5C | – | – |

— patent publication US9376470B2, “Polypeptide having angiogenesis-inducing activity and antibacterial activity, and use thereof for medical purposes” (FunPep Inc., priority 2008, dated 2016)
